Test results published in patent US6605641B2, “20-HETE antagonists and agonists” (MCW Research Foundation, priority 1998, dated 2003).

Legend:
[1] = test system: renal, cerebral and skeletal muscle arterioles; conditions: read-out: EC50 as constrictor; cited from earlier work
[2] = test system: isolated, pressured rat renal interlobular arteries; assay: Isolated vessel studies: vasoconstrictor response (vascular diameter) to cumulative doses of 20-HETE analogs; format: cell-based
Method: General. Experiments were performed on 10 to 12-week old male Sprague-Dawley rats purchased from Harlan Sprague-Dawley Laboratories (Indianapolis, Ind.). The rats were housed in the animal care facility at the Medical College of Wisconsin, which is approved by the American Association for the Accreditation of Laboratory Animal Care. The animals had free access to food and water. All protocols involving animals received approval by the Animal Care Committee of the Medical College of Wisconsin.
(§1) Isolated vessel studies. Interlobular arterioles (70-120 μm inner diameter) were microdissected from the kidneys of rats. The vessels were mounted on glass micropipettes in a perfusion chamber containing physiological saline solution equilibrated with a 95% O2-5% CO2 gas mixture and maintained at 37° C. The vessel were secured to the pipettes and side branches were tied off with 10-0 silk suture. The inflow pipette was connected to a pressurized reservoir to control of intraluminal perfusion pressure, which was monitored using a transducer (Cobe, Lakewood, Colo.). The vessels were stretched to in vivo length measured before microdissection. The outflow cannula was clamped off and intraluminal pressure was maintained at 90 mm Hg during the experiment. Vascular diameters were measured with a video system composed of a stereo microscope (Carl Zeiss, Inc., Germany), a CCTV television camera (KP-130AU, Hitachi, Japan), a videocassette recorder (AG-7300, Panasonic, Japan), a television monitor (CVM-1271, Sony, Japan), and a video measuring system (VIA-100, Boeckeler Instrument Co., Tucson, Ariz.).
(§2) The composition of the perfusate and the bath was (in mM): 119 NaCl, 4.7 KCl, 1.17 MgSO4, 1.6 CaCl2, 12 NaHCO3, 1.18 NaH2PO4, 0.03 EDTA and 10 glucose, pH 7.4. Indomethacin (5 μM), baicalein (0.5 μM) and 17-ODYA (1 μM) were added to the bath to block the endogenous formation and metabolism of eicosanoids via the cyclooxygenase, lipoxygenase and cytochrome P450 pathways. After the equilibration period, cumulative dose response curves were generated for each of the 20-HETE analogs.
Effect of the position of the hydroxyl group on the vasoconstrictor response to 20-HETE. These experiments examined the effects of increasing concentrations of 5(S)-, 8(S)-, 12(S)-, 15(S)-, and 19(S)-HETE on the diameter of isolated, pressured rat renal interlobular arteries. All of these analogs have the same number of carbons, double bonds and molecular weight as 20-HETE (FIG. 1). The major difference between these compounds and 20-HETE is the position of the OH group along the carbon chain. Additional experiments were performed with arachidonic acid and 20-carboxyarachidonic acid, which are structurally similar to 20-HETE but lack a hydroxyl group on the 20th carbon and 20-hydroxyeicosa-6, 15-dienoic acid (reverse 20-HETE) which has the carboxy- and hydroxy-moieties on the 1st and 20th carbons reversed. Cumulative dose response curves were generated for each compound (10^−8 to 10^−6 M) in the presence of indomethacin, baicalein, and 17-ODYA. Vascular diameters were recorded 2 to 3 minutes after the addition of the compounds to the bath.
Effect of the double bonds and carbon chain length to the vasoconstrictor response to 20-HETE. We next examined the importance of the double bonds and the length of the carbon chain to the vasoconstrictor response to 20-HETE. In these studies, the double bonds in the 20-HETE molecule were removed creating partial and saturated 20-HETE derivatives (20-hydroxyeicosa-6(Z),15(Z) dienoic acid; 20-hydroxyeicosanoic acid, FIG. 1). 20-HETE was also shortened by one carbon, creating a 19-carbon analog (19-hydroxynonadeca-5(Z),8(Z),11(Z),14(Z)-tetraenoic acid, FIG. 1) and double bonds were removed, creating a saturated 19-carbon analog (19 hydroxynonadecanoic acid, FIG. 1). […]

[3] = test system: vascular smooth muscle cells; conditions: read-out: EC50 as constrictor; cited from earlier work
LLC-PK1 cells = conditions: 20-HETE 10^−9 M; cited from earlier work
OK cells = conditions: 20-HETE 10^−9 M; cited from earlier work
[4] = test system: vasoconstrictor response to 20-HETE in isolated renal interlobular arteries; assay: 20-HETE antagonist activity: dose response curves to 20-HETE before and after addition of analog; format: cell-based, rat; conditions: analog 0.5 or 1 μM in bath, 20-HETE 10^−8 to 10^−6 M
Method: We also disclose below a test for 20-HETE antagonist activity. In this analysis, test compounds were analyzed by a cumulative dose response curve to 20-HETE generated before and after the addition of the test compound. […] We envision suitable antagonists as similarly blocking the vasoconstrictor response.
as §1, §2
20-HETE antagonist activity. […] In these experiments, cumulative dose response curves to 20-HETE (10^−8 to 10^−6 M) were generated before and after addition of 5(S)-HETE (0.5 μM), 8(S)-HETE (1 μM), 12(S)-HETE (0.5 μM), 15(S)-HETE (1 μM), 19(S)-HETE (1 μM), the C19-analog (1 μM), arachidonic acid (1 μM), 20-carboxy-arachidonic acid (1 μM), reverse 20-HETE (1 μM), saturated 20-HETE (1 μM), and the saturated C19-analog (1 μM) to the bath. Vascular diameters were recorded 2 to 3 minutes after the addition of each dose of 20-HETE to the bath.

| SMILES | EC50 [1] [nM] | threshold concentration that reduced vascular diameter ([2]; renal interlobular arterioles) [nM] | EC50 [3] [nM] | growth of cultured cells (LLC-PK1 cells) | growth of cultured cells (OK cells) | effect of analog on the vasoconstrictor response to 20-HETE (antagonist activity) [4] | effect of analog on the vasoconstrictor response to 20-HETE (antagonist activity) ([4]; listed as saturated C20-analog) | melting point [°C] | effect on the diameter of renal interlobular arteries (vasoconstrictor/agonist activity) ([2]; 10^−8 to 10^−6 M (up to 1 μM), indomethacin, baicalein, 17-ODYA present, diameter 2 to 3 minutes after addition) |
| --- | --- | --- | --- | --- | --- | --- | --- | --- | --- |
| O=C(O)CCC/C=C\C/C=C\C/C=C\C/C=C\CCCCCO [20-HETE, 20-hydroxyeicosatetraenoic acid] | < 10 | 10 | < 10 | promotes the growth | promotes the growth | – | – | – | – |
| O=C(O)CCCCCCCCCCCCCCCCCCCO [saturated 20-HETE derivative, 20-Hydroxyeicosanoic Acid] | – | – | – | – | – | exhibited competitive antagonist activity | not as effective as the parent compounds | 86 | no effect |
